Assay results reported in PMC7830743 (Journal of medicinal chemistry, 2020).
Entries after “also recorded” stand apart in the source; their conditions may differ.

Legend:
[1] = tested on: tumor LDH activity (A673 flank xenograft); experiment: In vivo LDHA activity in A673 xenograft tumor mouse model; conditions: single IV 50 mg/kg, A673 xenograft mice
[2] = RLM stability assay, single time point; conditions: single-point (15 min) measurement; >30 min is highest estimable
LDHA = LDHA (Homo sapiens, UniProt P00338); experiment: Biochemical LDHA inhibition assay
A673 cells [3] = experiment: Cytotoxicity assay in A673 cells; type: cell-based, human; conditions: Homo sapiens, A673, 48 h, read-out: A673 cells Cytotox. IC50
Kinetic solubility assay = type: physicochemical; conditions: PBS buffer
[4] = molecular target: LDHA with C-terminal HiBiT fusion tag (Homo sapiens, UniProt P00338); experiment: SplitLuc CETSA; type: cell-based
A673 cells [5] = experiment: Cellular lactate production assay in A673 cells; type: cell-based, human; conditions: Homo sapiens, A673, 0.5 h, read-out: A673 cells lactate inh. IC50
MiaPaCa-2 cells [6] = experiment: Cellular lactate production assay in MiaPaCa-2 cells; type: cell-based; conditions: Homo sapiens, MIA PaCa-2, 0.5 h, read-out: MiaPaCa-2 cells lactate inh. IC50
MiaPaCa-2 cells [7] = experiment: Cytotoxicity assay in MiaPaCa-2 cells; type: cell-based; conditions: Homo sapiens, MIA PaCa-2, 48 h, read-out: MiaPaCa-2 cells Cytotox. IC50
[8] = Mouse pharmacokinetic studies; type: in vivo, CD1 mice; conditions: male, CD1, mouse, plasma, iv, 10 mg/kg
Metabolite ID = type: in vitro ADME; conditions: also in the presence of GSH
[9] = Metabolic stability in hepatocytes; type: in vitro ADME, and mouse; conditions: rat, dog, mouse
CYP450 2C8 = molecular target: T1, CYP450 2C8 (Homo sapiens, UniProt P10632); experiment: CYP450 inhibition, 2C8; type: in vitro ADME
T1 sequence (P10632 1-490): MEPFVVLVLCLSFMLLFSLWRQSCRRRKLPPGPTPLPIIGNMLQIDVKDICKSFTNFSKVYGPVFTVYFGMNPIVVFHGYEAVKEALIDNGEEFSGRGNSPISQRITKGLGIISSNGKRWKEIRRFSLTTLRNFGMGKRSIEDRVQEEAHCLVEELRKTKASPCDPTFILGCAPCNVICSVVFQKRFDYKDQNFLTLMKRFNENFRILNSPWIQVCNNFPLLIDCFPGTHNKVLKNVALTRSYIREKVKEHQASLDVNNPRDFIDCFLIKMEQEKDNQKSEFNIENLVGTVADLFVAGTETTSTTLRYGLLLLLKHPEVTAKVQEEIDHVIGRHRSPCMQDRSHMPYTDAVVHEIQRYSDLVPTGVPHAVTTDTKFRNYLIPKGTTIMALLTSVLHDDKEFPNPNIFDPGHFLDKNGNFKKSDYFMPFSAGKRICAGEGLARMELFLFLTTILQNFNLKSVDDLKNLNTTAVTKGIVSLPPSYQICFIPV

[10] = Liver cytosolic stability; type: in vitro ADME, and rat; conditions: human, mouse, rat, liver cytosol
[11] = BBB-PAMPA permeability assay; type: in vitro ADME; conditions: pH 7.4
CYP450 2B6 = molecular target: T2, CYP450 2B6 (Homo sapiens, UniProt P20813); experiment: CYP450 inhibition, 2B6; type: in vitro ADME
T2 sequence (P20813 1-491): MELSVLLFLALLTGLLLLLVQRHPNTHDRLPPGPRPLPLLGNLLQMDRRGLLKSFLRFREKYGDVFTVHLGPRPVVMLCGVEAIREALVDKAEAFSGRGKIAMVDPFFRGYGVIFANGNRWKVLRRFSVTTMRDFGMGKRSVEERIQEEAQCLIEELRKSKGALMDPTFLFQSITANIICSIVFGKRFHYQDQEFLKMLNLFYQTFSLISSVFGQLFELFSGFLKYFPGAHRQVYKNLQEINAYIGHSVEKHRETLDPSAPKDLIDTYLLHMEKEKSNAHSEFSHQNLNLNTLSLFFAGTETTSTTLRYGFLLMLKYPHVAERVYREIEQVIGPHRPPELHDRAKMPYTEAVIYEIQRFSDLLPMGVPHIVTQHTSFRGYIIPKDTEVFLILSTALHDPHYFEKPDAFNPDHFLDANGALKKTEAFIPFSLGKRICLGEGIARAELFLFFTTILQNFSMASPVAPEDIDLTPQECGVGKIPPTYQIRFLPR

CYP = CYP induction; type: in vitro ADME; conditions: at 10 μM

Row | SMILES | IC50 (LDHA) [nM] | IC50 (A673 cells [3]) [nM] | aq solubility at pH 7.4 (Kinetic solubility assay) | IC50 [4] [nM] | IC50 (A673 cells [5]) [nM] | IC50 (MiaPaCa-2 cells [6]) [nM] | IC50 (MiaPaCa-2 cells [7]) [nM] | other results
1 | CCCC#Cc1cc(-c2nn(-c3nc(C(=O)O)cs3)c(CC3CC3)c2Cc2ccc(S(N)(=O)=O)c(F)c2)ccc1F [Compound 14, 2-(5-(Cyclopropylmethyl)-3-(4-fluoro-3-(pent-1-yn-1-yl)phenyl)-4-(3-fluoro-4-sulfamoylbenzyl)-1H-pyrazol-1-yl)thiazole-4-carboxylic Acid] |  |  |  |  |  |  |  | effect on LDH activity in tumors (in words) [1]: less effects; RLM stability T1/2 [2]: metabolized quickly
2 | CCCCC#Cc1cc(-c2nn(-c3nc(C(=O)O)cs3)c(CC3CC3)c2Cc2ccc(S(N)(=O)=O)c(F)c2)ccc1F [Compound 15, 2-(5-(Cyclopropylmethyl)-3-(4-fluoro-3-(hex-1-yn-1-yl)phenyl)-4-(3-fluoro-4-sulfamoylbenzyl)-1H-pyrazol-1-yl)thiazole-4-carboxylic Acid] |  |  |  |  |  |  |  | RLM stability T1/2 [2]: metabolized quickly
3 | CC1(C#Cc2cc(-c3nn(-c4nc(C(=O)O)cs4)c(CC4CC4)c3Cc3ccc(S(N)(=O)=O)c(F)c3)ccc2F)COC1 [Compound 26, 2-(5-(Cyclopropylmethyl)-3-(4-fluoro-3-((3-methyloxetan-3-yl)-ethynyl)phenyl)-4-(3-fluoro-4-sulfamoylbenzyl)-1H-pyrazol-1-yl)-thiazole-4-carboxylic Acid] | 10 | 1180 | significantly diminished | 84 | 1050 | 898 | 1240 | 
4 | NS(=O)(=O)c1ccc(Cc2c(-c3ccc(F)c(C#CC4(F)CCOC4)c3)nn(-c3nc(C(=O)O)cs3)c2CC2CC2)cc1F (stereo not shown) [Compound 30, 2-(5-(Cyclopropylmethyl)-3-(4-fluoro-3-((3-fluorotetrahydrofuran-3-yl)ethynyl)phenyl)-4-(3-fluoro-4-sulfamoylbenzyl)-1H-pyrazol-1-yl)thiazole-4-carboxylic Acid] | 1 | 1050 | significantly diminished | 201 | 1060 | 867 | 882 | 
5 | NS(=O)(=O)c1ccc(Cc2c(-c3ccc(F)c(C#CC4(O)CCOC4)c3)nn(-c3nc(C(=O)O)cs3)c2CC2CC2)cc1F (stereo not shown) [Compound 31, 2-(5-(Cyclopropylmethyl)-3-(4-fluoro-3-((3-hydroxytetrahydrofuran-3-yl)ethynyl)phenyl)-4-(3-fluoro-4-sulfamoylbenzyl)-1H-pyrazol-1-yl)thiazole-4-carboxylic Acid] | 5 | 2640 |  | 815 | 5940 | 3870 | 1740 | 
6 | NS(=O)(=O)c1ccc(Cc2c(-c3ccc(F)c(C#CCN4CCCC4)c3)nn(-c3nc(C(=O)O)cs3)c2CC2CC2)cc1F [Compound 39, 2-(5-(Cyclopropylmethyl)-3-(4-fluoro-3-(3-(pyrrolidin-1-yl)prop-1-yn-1-yl)phenyl)-4-(3-fluoro-4-sulfamoylbenzyl)-1H-pyrazol-1-yl)-thiazole-4-carboxylic Acid] |  |  | significantly diminished |  |  |  |  | 
7 | Cc1cnc(C#Cc2cc(-c3nn(-c4nc(C(=O)O)cs4)c(CC4CC4)c3Cc3ccc(S(N)(=O)=O)c(F)c3)ccc2F)s1 [Compound 47, 2-(5-(Cyclopropylmethyl)-3-(4-fluoro-3-((5-methylthiazol-2-yl)-ethynyl)phenyl)-4-(3-fluoro-4-sulfamoylbenzyl)-1H-pyrazol-1-yl)-thiazole-4-carboxylic Acid] |  |  | significantly diminished |  |  |  |  | effect on LDH activity in tumors (in words) [1]: less effects; clearance at 24 h [8]: 128 mL/min/kg
8 | Cn1cncc1C#Cc1cc(-c2nn(-c3nc(C(=O)O)cs3)c(CC3CC3)c2Cc2ccc(S(N)(=O)=O)c(F)c2)ccc1F [Compound 48, 2-(5-(Cyclopropylmethyl)-3-(4-fluoro-3-((1-methyl-1H-imidazole-5-yl)ethynyl)phenyl)-4-(3-fluoro-4-sulfamoylbenzyl)-1H-pyrazol-1-yl)thiazole-4-carboxylic Acid] |  |  | significantly diminished |  |  |  |  | 
9 | Cc1ccc(C#Cc2cccc(-c3nn(-c4nc(C(=O)O)cs4)c(CC4CC4)c3Cc3ccc(S(N)(=O)=O)c(F)c3)c2)s1 [Compound 52, 2-(5-(Cyclopropylmethyl)-4-(3-fluoro-4-sulfamoylbenzyl)-3-(3((5-methylthiophen-2-yl)-ethynyl)phenyl)-1H-pyrazol-1-yl)thiazole4-carboxylic Acid] |  |  |  |  |  |  |  | effect on LDH activity in tumors (in words) [1]: significantly reduced; metabolite ID (in vitro) (Metabolite ID): no significant phase I or II metabolites; Ames (Ames assay): not active; also recorded: negative; half-life [9]: > 2.5 h; IC50 (CYP450 2C8): 7500 nM; clearance at 24 h [8]: 10.4 mL/min/kg; half-life [10]: > 2 h; PAMPA-BBB permeability [11]: low permeability; IC50 (CYP450 2B6): 14000 nM; CYP induction (CYP): no induction at 10 μM
10 | Cc1nc(C#Cc2cccc(-c3nn(-c4nc(C(=O)O)cs4)c(CC4CC4)c3Cc3ccc(S(N)(=O)=O)c(F)c3)c2)cs1 [Compound 65, 2-(5-(Cyclopropylmethyl)-4-(3-fluoro-4-sulfamoylbenzyl)-3-(3-((2-methylthiazol-4-yl)ethynyl)phenyl)-1H-pyrazol-1-yl)thiazole-4-carboxylic Acid] |  |  | significantly diminished |  |  |  |  | 
11 | Cc1cnc(C#Cc2cccc(-c3nn(-c4nc(C(=O)O)cs4)c(CCC4CC4)c3Cc3ccc(S(N)(=O)=O)c(F)c3)c2)s1 [Compound 80, 2-(5-(2-Cyclopropylethyl)-4-(3-fluoro-4-sulfamoylbenzyl)-3-(3((5-methylthiazol-2-yl)ethynyl)phenyl)-1H-pyrazol-1-yl)thiazole-4-carboxylic Acid] |  |  | significantly diminished |  |  |  |  | 
12 | Cc1ccc(C#Cc2cccc(-c3nn(-c4nc(C(=O)O)cs4)c(C4CC45CC5)c3Cc3ccc(S(N)(=O)=O)c(F)c3)c2)s1 (stereo not shown) [Compound 87, 2-(4-(3-Fluoro-4-sulfamoylbenzyl)-3-(3-((5-methylthiophen-2-yl)ethynyl)phenyl)-5-(spiro[2.2]pentan-1-yl)-1H-pyrazol-1-yl)-thiazole-4-carboxylic Acid] | 122 | 526 |  | 175 | 485 | 459 | 469 | 
